The target in assay [1] is T1, PpTRPA1 (Patiria pectinifera, UniProt A0A1Y1C7R6).
T1 construct: cRNA in Xenopus laevis oocytes; no tag told; PCR primers imply N-terminus MEGDE and C-terminus EHDGSNTA
T1 sequence (A0A1Y1C7R6 1-1200): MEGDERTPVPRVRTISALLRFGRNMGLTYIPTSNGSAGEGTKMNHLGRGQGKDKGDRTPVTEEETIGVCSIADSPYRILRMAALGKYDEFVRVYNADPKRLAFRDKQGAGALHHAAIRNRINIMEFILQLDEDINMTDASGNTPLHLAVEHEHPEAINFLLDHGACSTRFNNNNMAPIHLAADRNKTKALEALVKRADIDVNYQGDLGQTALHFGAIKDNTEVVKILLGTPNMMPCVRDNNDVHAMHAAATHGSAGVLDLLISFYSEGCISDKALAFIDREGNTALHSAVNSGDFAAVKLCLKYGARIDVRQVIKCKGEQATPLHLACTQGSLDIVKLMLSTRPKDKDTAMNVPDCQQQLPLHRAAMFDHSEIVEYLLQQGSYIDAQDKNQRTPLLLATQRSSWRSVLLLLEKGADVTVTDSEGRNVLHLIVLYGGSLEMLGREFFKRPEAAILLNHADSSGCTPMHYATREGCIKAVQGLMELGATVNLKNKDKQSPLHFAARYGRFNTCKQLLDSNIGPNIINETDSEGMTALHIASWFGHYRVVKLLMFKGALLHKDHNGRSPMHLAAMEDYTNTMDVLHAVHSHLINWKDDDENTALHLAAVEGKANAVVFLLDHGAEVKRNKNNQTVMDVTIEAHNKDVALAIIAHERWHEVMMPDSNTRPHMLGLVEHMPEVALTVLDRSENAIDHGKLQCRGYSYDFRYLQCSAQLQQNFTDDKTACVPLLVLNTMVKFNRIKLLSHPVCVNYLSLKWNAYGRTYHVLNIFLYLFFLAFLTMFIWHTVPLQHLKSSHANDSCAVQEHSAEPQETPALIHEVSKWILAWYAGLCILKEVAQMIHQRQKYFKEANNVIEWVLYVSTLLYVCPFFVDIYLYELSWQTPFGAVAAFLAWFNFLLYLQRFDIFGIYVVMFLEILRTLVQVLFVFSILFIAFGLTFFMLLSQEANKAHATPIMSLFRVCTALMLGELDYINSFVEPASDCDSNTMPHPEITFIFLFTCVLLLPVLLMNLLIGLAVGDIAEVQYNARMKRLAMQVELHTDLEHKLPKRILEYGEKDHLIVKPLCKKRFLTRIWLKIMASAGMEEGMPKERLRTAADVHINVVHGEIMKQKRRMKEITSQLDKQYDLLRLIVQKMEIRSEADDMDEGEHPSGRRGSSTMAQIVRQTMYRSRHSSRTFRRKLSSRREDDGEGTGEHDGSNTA
The experiment in a line: two-electrode voltage clamp, Xenopus laevis oocytes. Type of assay: cell-based. In general terms: Two-electrode voltage clamp holds a large cell at a set potential and records current.

The target of assay [2] is T1, PpTRPA1. The description is as above. Format: cell-based. To be noted: agonist; ND96 bath, pH 7.4; -60 mV; n = 3; cinnamaldehyde concentration not in text.

Broadly, the EC50 is the concentration that produces a half-maximal response. High values mean a need for much substance, low ones an effect from little substance. `C=CCN=C=S` [AITC, allyl isothiocyanate] displayed a concentration giving a half-maximal response (EC50) at PpTRPA1 [1] of 117 µM.

As to `O=CC=Cc1ccccc1` [CA, cinnamaldehyde], the “two-electrode voltage clamp, Xenopus laevis oocytes” value at PpTRPA1 [2] was “Cinnamaldehyde (CA), another TRPA1 agonist, also evoked inward currents in X. laevis oocytes expressing PpTRPA1”.
